System: NCI-H322M multicellular tumor spheroids, viability (% test/control)
Test: Anticancer human tumor NCI-H322M cell line growth inhibition;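 for viability, T/C: spheroids exposed to compound for seven days before readout; 100% = DMSO vehicle control wells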
Details: for IC50: curve of first compound; for viability, T/C: stronger effect = lower value
Procedure, shortened: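 Complex tumor spheroids combined malignant cells with endothelial cells and mesenchymal stem cells. DNA-damaging drugs and DNA repair inhibitors were tested alone and in combination, at half-log dilutions down from clinical Cmax (top 10 microM if Cmax unknown), 0.25% DMSO final.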

[1] = second compound 30 pM, first compound 0.0316 µM
[2] = second compound 30 pM, first compound 0.1 µM
[3] = second compound 30 pM, first compound 0.316 µM
[4] = second compound 30 pM, first compound 1 µM
[5] = second compound 30 pM, first compound 3.16 µM
[6] = second compound 30 pM, first compound 10 µM
[7] = second compound 94.9 pM, first compound 0.0316 µM
[8] = second compound 94.9 pM, first compound 0.1 µM
[9] = second compound 94.9 pM, first compound 0.316 µM
[10] = second compound 94.9 pM, first compound 1 µM
[11] = second compound 94.9 pM, first compound 3.16 µM
[12] = second compound 94.9 pM, first compound 10 µM
[13] = second compound 0.0003 µM, first compound 0.0316 µM
[14] = second compound 0.0003 µM, first compound 0.1 µM
[15] = second compound 0.0003 µM, first compound 0.316 µM
[16] = second compound 0.0003 µM, first compound 1 µM
[17] = second compound 0.0003 µM, first compound 3.16 µM
[18] = second compound 0.0003 µM, first compound 10 µM
[19] = second compound 0.000949 µM, first compound 0.0316 µM
[20] = second compound 0.000949 µM, first compound 0.1 µM
[21] = second compound 0.000949 µM, first compound 0.316 µM
[22] = second compound 0.000949 µM, first compound 1 µM
[23] = second compound 0.000949 µM, first compound 3.16 µM
[24] = second compound 0.000949 µM, first compound 10 µM
[25] = second compound 0.003 µM, first compound 0.0316 µM
[26] = second compound 0.003 µM, first compound 0.1 µM
[27] = second compound 0.003 µM, first compound 0.316 µM
[28] = second compound 0.003 µM, first compound 1 µM
[29] = second compound 0.003 µM, first compound 3.16 µM
[30] = second compound 0.003 µM, first compound 10 µM

Compound	IC50 (second compound 30 pM)	IC50 (second compound 94.9 pM)	IC50 (second compound 0.0003 µM)	IC50 (second compound 0.000949 µM)	IC50 (second compound 0.003 µM)	viability, T/C [1]	viability, T/C [2]	viability, T/C [3]	viability, T/C [4]	viability, T/C [5]	viability, T/C [6]	viability, T/C [7]	viability, T/C [8]	viability, T/C [9]	viability, T/C [10]	viability, T/C [11]	viability, T/C [12]	viability, T/C [13]	viability, T/C [14]	viability, T/C [15]	also measured
CC(C)n1c(=O)n(C)c2cnc3cc(F)c(-c4ccc(OCCCN5CCCCC5)nc4)cc3c21 + COc1cc2c(cc1O)CCNC21CSC2c3c(OC(C)=O)c(C)c4c(c3C(COC1=O)N1C(O)C3Cc5cc(C)c(OC)c(O)c5C(C21)N3C)OCO4	> 10000 nM	> 10000 nM	> 10000 nM	276 nM	< 31.6 nM	74.8%	73.8%	74.4%	62.8%	64.2%	54.7%	77.3%	64.4%	85.3%	69%	61.4%	62.5%	58.5%	59.9%	58.3%	viability, T/C [16]: 72.1%; viability, T/C [17]: 68.5%; viability, T/C [18]: 60%; viability, T/C [19]: 63.8%; viability, T/C [20]: 69.2%; viability, T/C [21]: 45.3%; viability, T/C [22]: 42.2%; viability, T/C [23]: 46.6%; viability, T/C [24]: 57.1%; viability, T/C [25]: 5.32%; viability, T/C [26]: 5.15%; viability, T/C [27]: 3.05%; viability, T/C [28]: 3.74%; viability, T/C [29]: 6.35%; viability, T/C [30]: 6.1%
CC1COCCN1c1cc(-c2ccnn2C)c2ccnc(-c3ccn[nH]3)c2n1 (stereo not given) + COc1cc2c(cc1O)CCNC21CSC2c3c(OC(C)=O)c(C)c4c(c3C(COC1=O)N1C(O)C3Cc5cc(C)c(OC)c(O)c5C(C21)N3C)OCO4	< 31.6 nM	< 31.6 nM	< 31.6 nM	< 31.6 nM	< 31.6 nM	50.9%	34.8%	28.1%	29.2%	31%	33%	42.3%	29.3%	27.5%	25.9%	29.2%	32.3%	28%	21.1%	21%	viability, T/C [16]: 22.7%; viability, T/C [17]: 24.3%; viability, T/C [18]: 26.8%; viability, T/C [19]: 19.4%; viability, T/C [20]: 15%; viability, T/C [21]: 17%; viability, T/C [22]: 19.7%; viability, T/C [23]: 18.8%; viability, T/C [24]: 18%; viability, T/C [25]: 3.51%; viability, T/C [26]: 3.16%; viability, T/C [27]: 3.09%; viability, T/C [28]: 2.33%; viability, T/C [29]: 2.23%; viability, T/C [30]: 0.78%

Source: PubChem BioAssay AID1845211 (Molecular Pharmacology Branch, DTP, NCI, 2023)
